Measured values from US20250230165A1, “HETEROCYCLIC COMPOUNDS FOR USE IN THE TREATMENT OF CANCER” (ARTIOS PHARMA LIMITED, priority 2021, published 2025).

Molecular target: T1, Human Polθ polymerase domain (aa1820-2590) (Homo sapiens, UniProt O75417)
T1 construct: Human Polθ polymerase domain (aa1820-2590) was expressed in E. coli; made in house; host or cells: E. coli
T1 sequence (O75417 1820-2590): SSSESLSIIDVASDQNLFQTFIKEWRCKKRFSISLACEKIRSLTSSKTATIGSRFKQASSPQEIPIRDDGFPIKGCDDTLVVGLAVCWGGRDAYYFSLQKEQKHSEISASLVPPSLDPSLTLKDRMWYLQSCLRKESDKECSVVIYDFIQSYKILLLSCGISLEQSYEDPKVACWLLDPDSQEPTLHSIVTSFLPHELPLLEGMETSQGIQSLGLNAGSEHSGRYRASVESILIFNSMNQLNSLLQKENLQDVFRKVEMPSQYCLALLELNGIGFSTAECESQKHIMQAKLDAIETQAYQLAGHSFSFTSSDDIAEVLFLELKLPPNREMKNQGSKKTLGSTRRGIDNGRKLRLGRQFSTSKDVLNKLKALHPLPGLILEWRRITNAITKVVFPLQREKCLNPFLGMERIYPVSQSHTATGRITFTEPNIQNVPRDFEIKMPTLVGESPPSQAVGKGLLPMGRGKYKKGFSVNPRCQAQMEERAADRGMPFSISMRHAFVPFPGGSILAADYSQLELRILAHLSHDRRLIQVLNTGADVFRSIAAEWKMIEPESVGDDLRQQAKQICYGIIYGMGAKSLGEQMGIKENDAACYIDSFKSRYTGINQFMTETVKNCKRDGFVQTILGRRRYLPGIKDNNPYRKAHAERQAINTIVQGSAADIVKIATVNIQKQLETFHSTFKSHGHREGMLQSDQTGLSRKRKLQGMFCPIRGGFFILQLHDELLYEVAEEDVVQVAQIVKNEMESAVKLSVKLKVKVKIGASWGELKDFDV
Assay: Polθ Polymerase Domain Kinact/KI Assay (PicoGreen)
Format: biochemical
Settings: 0.8 nM Polθ, 100 nM DNA substrate, kobs vs [I] fit for 2-step covalent inhibitor
Procedure, shortened: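 Time-dependent inhibition was followed by quenching reactions with EDTA at points up to 60 min, then staining product DNA with PicoGreen fluorescence. Reactions held 0.8 nM E. coli-expressed Polθ, 100 nM primed DNA substrate and […] at pH 7.5, 1% DMSO. kobs versus inhibitor concentration gave Kinact and KI.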

Row | Structure (SMILES) | Kinact/Kl
1 | C=CC(=O)N1CCC(n2cnc(CN3C[C@H]4CC(=O)N(c5cc(C(F)(F)F)cc(C)n5)[C@@H]4C(=O)N(C)c4cccc(Cl)c43)n2)CC1 [Example 135, (3aR,11aS)-5-((1-(1-acryloylpiperidin-4-yl)-1H-1,2,4-triazol-3-yl)methyl)-6-chloro-10-methyl-1-(6-methyl-4-(trifluoromethyl)pyridin-2-yl)-1,3a,4,5,10,11a-hexahydro-2H-benzo[b]pyrrolo[2,3-f][1,4]diazocine-2,11(3H)-dione] | 2e+06 M⁻¹ s⁻¹
2 | C=CC(=O)N1CCN(CCN2C[C@H]3CC(=O)N(c4cc(C(F)(F)F)cc(C)n4)[C@@H]3C(=O)N(C)c3cccc(Cl)c32)CC1CC#N (mixture of isomers) [Example 258a, 2-((R/S)-1-acryloyl-4-(2-((3aR,11aS)-6-chloro-10-methyl-1-(6-methyl-4-(trifluoromethyl)pyridin-2-yl)-2,11-dioxo-1,2,3,3a,4,10,11,11a-octahydro-5H-benzo[b]pyrrolo[2,3-f][1,4]diazocin-5-yl)ethyl)piperazin-2-yl)acetonitrile] | 1.65e+06 M⁻¹ s⁻¹
3 | C=CC(=O)N1Cc2nc(CN3C[C@H]4CC(=O)N(c5cc(C(F)(F)F)cc(C)n5)[C@@H]4C(=O)N(C)c4cccc(C)c43)ccc2[C@H]1CC#N (racemic) [Example 319a, 2-((S/R)-6-acryloyl-2-(((3aR,11aS)-6,10-dimethyl-1-(6-meth-yl-4-(trifluorometh-yl)pyridin-2-yl)-2,11-dioxo-1,2,3,3a,4,10,11,11a-octahydro-5H-benzo [b]pyrrolo[2,3-][1,4]diazocin-5-yl)meth-yl)-6,7-dihydro-5H-pyrrolo[3,4-b]pyr-idin-5-yl)acetonitrile] | 2.17e+06 M⁻¹ s⁻¹
4 | C=CC(=O)N1Cc2ccc(CN3C[C@H]4CC(=O)N(c5cc(C(F)(F)F)cc(C)n5)[C@@H]4C(=O)N(C)c4cccc(Cl)c43)nc2C1 [Example 276, (3aR,11aS)-5-((6-acryloyl-6,7-dihydro-5H-pyrrolo[3,4-b]pyridin-2-yl)methyl)-6-chloro-10-methyl-1-(6-methyl-4-(trifluoromethyl)pyridin-2-yl)-1,3a,4,5,10,11a-hexahydro-2H-benzo[b]pyrrolo[2,3-f][1,4]diazocine-2,11(3H)-dione] | 1.76e+06 M⁻¹ s⁻¹
5 | C=CC(=O)N1CC(c2cccc(CN3C[C@H]4CC(=O)N(c5cc(C(F)(F)F)cc(C)n5)[C@@H]4C(=O)N(C)c4cccc(F)c43)n2)C1 [Example 128, (3aR,11aS)-5-((6-(1-acryloylazetidin-3-yl)pyridin-2-yl)methyl)-6-fluoro-10-methyl-1-(6-methyl-4-(trifluoromethyl)pyridin-2-yl)-1,3a,4,5,10,11a-hexahydro-2H-benzo[b]pyrrolo[2,3-f][1,4]diazocine-2,11(3H)-dione] | 660000 M⁻¹ s⁻¹
6 | C=CC(=O)N1C[C@H](F)[C@@H](n2cc(CN3C[C@H]4CC(=O)N(c5cc(C(F)(F)F)cc(C)n5)[C@@H]4C(=O)N(C)c4cccc(C)c43)cn2)C1 (single isomer, unassigned) [Example 325a] | 1.25e+06 M⁻¹ s⁻¹
7 | C=CC(=O)N1Cc2ncn(CCN3C[C@H]4CC(=O)N(c5cc(C(F)(F)F)cc(C)n5)[C@@H]4C(=O)N(C)c4cccc(Cl)c43)c2C1 [Example 259, (3aR,11aS)-5-(2-(5-acryloyl-5,6-dihydropyrrolo[3,4-d]imidazol-1(4H)-yl)ethyl)-6-chloro-10-methyl-1-(6-methyl-4-(trifluoromethyl)pyridin-2-yl)-1,3a,4,5,10,11a-hexahydro-2H-benzo[b]pyrrolo[2,3-f][1,4]diazocine-2,11(3H)-dione] | 150000 M⁻¹ s⁻¹
8 | C=C(CN(C)C)C(=O)N1CC(OCCCN2C[C@H]3CC(=O)N(c4cc(C(F)(F)F)cc(C)n4)[C@@H]3C(=O)N(C)c3ccccc32)C1 [Example 81, (3aR,11aS)-5-(3-((1-(2-((dimethylamino)methyl)acryloyl)azetidin-3-yl)oxy)propyl)-10-methyl-1-(6-methyl-4-(trifluoromethyl)pyridin-2-yl)-1,3a,4,5,10,11a-hexahydro-2H-benzo[b]pyrrolo[2,3-f][1,4]diazocine-2,11(3H)-dione] | 2.03e+06 M⁻¹ s⁻¹
9 | C=CC(=O)N1CC(N2CC[C@@H](CN3C[C@H]4CC(=O)N(c5cc(C(F)(F)F)cc(C)n5)[C@@H]4C(=O)N(C)c4cccc(F)c43)C2)C1 [Example 214, (3aR,11aS)-5-(((R)-1-(1-acryloylazetidin-3-yl)pyrrolidin-3-yl)methyl)-6-fluoro-10-methyl-1-(6-methyl-4-(trifluoromethyl)pyridin-2-yl)-1,3a,4,5,10,11a-hexahydro-2H-benzo[b]pyrrolo [2,3-f][1,4] diazocine-2,11 (3H)-dione] | 320000 M⁻¹ s⁻¹
10 | C=CC(=O)N1Cc2nc(CN3C[C@H]4CC(=O)N(c5cc(C(F)(F)F)cc(C)n5)[C@@H]4C(=O)Nc4cccc(Cl)c43)cn2CC1C (single isomer, unassigned) [Example 144a] | 1.06e+06 M⁻¹ s⁻¹
11 | C=CC(=O)N1Cc2ccc(CN3C[C@H]4CC(=O)N(c5cc(C(F)(F)F)cc(C)n5)[C@@H]4C(=O)N(C)c4cccc(F)c43)cc2C1 [Example 130, (3aR,11aS)-5-((2-acryloylisoindolin-5-yl)methyl)-6-fluoro-10-methyl-1-(6-methyl-4-(trifluoromethyl)pyridin-2-yl)-1,3a,4,5,10,11a-hexahydro-2H-benzo[b]pyrrolo[2,3-f][1,4]diazocine-2,11(3H)-dione] | 710000 M⁻¹ s⁻¹
12 | C=CC(=O)N1Cc2nc(CN3C[C@H]4CC(=O)N(c5cc(C(F)(F)F)cc(C)n5)[C@@H]4C(=O)N(C)c4cccc(C)c43)ccc2C1CO (stereo partly drawn) [Example 238, (3aR,11aS)-5-((6-acryloyl-5-(hydroxymethyl)-6,7-dihydro-5H-pyrrolo[3,4-b]pyridin-2-yl)methyl)-6,10-dimethyl-1-(6-methyl-4-(trifluoromethyl)pyridin-2-yl)-1,3a,4,5,10,11a-hexahydro-2H-benzo[b]pyrrolo[2,3-f][1,4]diazocine-2,11(3H)-dione] | 740000 M⁻¹ s⁻¹
13 | C=CC(=O)N1CCc2ncn(CCN3C[C@H]4CC(=O)N(c5cc(C(F)(F)F)cc(C)n5)[C@@H]4C(=O)N(C)c4cccc(F)c43)c2C1 [Example 50, (3aR,11aS)-5-(2-(5-acryloyl-4,5,6,7-tetrahydro-3H-imidazo[4,5-c]pyridin-3-yl)ethyl)-6-fluoro-10-methyl-1-(6-methyl-4-(trifluoromethyl)pyridin-2-yl)-1,3a,4,5,10,11a-hexahydro-2H-benzo[b]pyrrolo[2,3-f][1,4]diazocine-2,11(3H)-dione] | 190000 M⁻¹ s⁻¹
14 | C=CC(=O)N1CC2(CN(CCN3C[C@H]4CC(=O)N(c5cc(C(F)(F)F)cc(C)n5)[C@@H]4C(=O)N(C)c4cccc(F)c43)Cc3nccn32)C1 [Example 105, (3aR,11aS)-5-(2-(1-acryloyl-6′H-spiro[azetidine-3,5′-imidazo[1,2-a]pyrazin]-7′(8′H)-yl)ethyl)-6-fluoro-10-methyl-1-(6-methyl-4-(trifluoromethyl)pyridin-2-yl)-1,3a,4,5,10,11a-hexahydro-2H-benzo[b]pyrrolo[2,3-f][1,4]diazocine-2,11(3H)-dione] | 1.04e+06 M⁻¹ s⁻¹
15 | C=CC(=O)NC1CCN(CCN2C[C@H]3CC(=O)N(c4cc(C(F)(F)F)cc(C)n4)[C@@H]3C(=O)N(C)c3cccc(Cl)c32)CC1(F)F (mixture of isomers) [Example 257a, N—((S/R)-1-(2-((3aR,11aS)-6-chloro-10-methyl-1-(6-methyl-4-(trifluoromethyl)pyridin-2-yl)-2,11-dioxo-1,2,3,3a,4,10,11,11a-octahydro-5H-benzo[b]pyrrolo[2,3-f][1,4]diazocin-5-yl)ethyl)-3,3-difluoropiperidin-4-yl)acrylamide] | 2.17e+06 M⁻¹ s⁻¹
16 | C=CC(=O)N1CC(N2CC[C@H](CN3C[C@H]4CC(=O)N(c5cc(C(F)(F)F)cc(C)n5)[C@@H]4C(=O)N(C)c4cccc(Cl)c43)C2)C1 [Example 218, (3aR,11aS)-5-(((S)-1-(1-acryloylazetidin-3-yl)pyrrolidin-3-yl)methyl)-6-chloro-10-methyl-1-(6-methyl-4-(trifluoromethyl)pyridin-2-yl)-1,3a,4,5,10,11a-hexahydro-2H-benzo[b]pyrrolo [2,3-f][1,4] diazocine-2,11 (3H)-dione] | 1.62e+06 M⁻¹ s⁻¹
17 | C=CC(=O)Nc1cnc(CN2C[C@H]3CC(=O)N(c4cc(C(F)(F)F)cc(C)n4)[C@@H]3C(=O)N(C)c3cccc(Cl)c32)nc1 [Example 284, N-(2-(((3aR,11aS)-6-chloro-10-methyl-1-(6-methyl-4-(trifluoromethyl)pyridin-2-yl)-2,11-dioxo-1,2,3,3a,4,10,11,11a-octahydro-5H-benzo[b]pyrrolo[2,3-f][1,4]diazocin-5-yl)methyl)pyrimidin-5-yl)acrylamide] | 770000 M⁻¹ s⁻¹
